Patent publication US9120774B2 (University of Kansas, priority 2009, dated 2015)
Where two headings read alike, the source gives them in different places. One block for each compound: values may come before it.

Columns and labels:
Assay type in all cases: cell-based
[1] = system: SkBr3 (Her2 overexpressing breast cancer cells); assay: Anti-proliferation activity against SkBr3 cells (MTS/PMS); details: Homo sapiens, SK-BR-3, n = 3, read-out: IC50 SkBr3
In short: (§1)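 Cells seeded at 2000/well, attached overnight, then exposed to compound at varying concentrations (1% DMSO final) for 72 hours at 37° C. Viable cells read by MTS/PMS, normalised to 1% DMSO as 100% proliferation. IC50 from separate triplicate experiments.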

[2] = system: MCF-7 (estrogen receptor positive breast cancer cells); assay: Anti-proliferation activity against MCF-7 cells (MTS/PMS); details: Homo sapiens, MCF7, n = 3, read-out: IC50 MCF-7
In short: as §1

[3] = system: HCT-116 (colon cancer cells characterized by wild-type p53); assay: Anti-proliferation activity against HCT-116 cells; details: Homo sapiens
Description: (§2) Upon completion of synthesis of library of compounds in Examples 23 and 24, the compounds were evaluated for anti-proliferative activity against SkBr3 (Her2 overexpressing breast cancer cells), MCF-7 (estrogen receptor positive breast cancer cells), HCT-116 (colon cancer cells characterized by wild-type p53), PL45 (pancreatic cancer cells), LNCaP (androgen sensitive prostate cancer cells) and PC-3 (androgen independent prostate cancer cells) cell lines. […] The monosubstituted benzamide variants improved activity.

[4] = system: PL45 (pancreatic cancer cells); assay: Anti-proliferation activity against PL45 cells
Description: as §2

[5] = system: LNCaP (androgen sensitive prostate cancer cells); assay: Anti-proliferation activity against LNCaP cells; details: Homo sapiens, LNCaP, n = 3, read-out: IC50 LNCaP
In short: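 Cells seeded at 2000/well in Advanced DMEM/F12 with 10% FBS and attached overnight, then given compound in 1% DMSO final for 72 h at 37 °C, 5% CO2. Viable cells by MTS/PMS read-out, normalised to 1% DMSO as 100% proliferation. IC50 from separate triplicate experiments.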

[6] = system: PC-3 (androgen independent prostate cancer cells); assay: Anti-proliferation activity against PC-3 cells; details: Homo sapiens, PC-3, n = 3, read-out: IC50 PC-3
In short: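 Antiproliferative activity was tested in PC-3 androgen-independent prostate cancer cells. Cells grown at 37° C. with 5% CO2 in Advanced DMEM/F12 (1:1) containing non-essential amino acids, 2 mM L-glutamine, streptomycin, penicillin and 10% FBS were plated at 2000/well in 96-well plates. Proliferation was normalized to 1% DMSO controls, and IC50 values from triplicate experiments were fitted in GraphPad Prism.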

[7] = Table 4, biaryl analogues, n = 3
[8] = Table 5, heterocyclic analogues
[9] = Table 5, heterocyclic analogues, n = 3

- IC50 ([1]; Table 4, biaryl analogues): 2.9 ± 1.2 µM
- IC50 ([2]; Table 4, biaryl analogues): 5.3 ± 1.5 µM
- IC50 [3, 7]: 4.5 ± 1.2 µM
- IC50 [4, 7]: 1.1 µM
- IC50 ([5]; Table 4, biaryl analogues): 2.5 ± 1.2 µM
- IC50 ([6]; Table 4, biaryl analogues): 14.7 ± 2.4 µM
SMILES: COc1ccc(C(=O)Nc2cc3ccc(O[C@@H]4OC(C)(C)[C@H](OC)[C@@H](O)[C@H]4O)c(C)c3oc2=O)cc1-c1cccc(O)c1 [compound 36, N-(7-((2R,3R,4S,5R)-3,4-Dihydroxy-5-methoxy-6,6-dimethyltetrahydro-2H-pyran-2-yloxy)-8-methyl-2-oxo-2H-chromen-3-yl)-3′-hydroxy-6-methoxybiphenyl-3-carboxamide]

- IC50 [1, 8]: 28.4 ± 2 µM
- IC50 [2, 8]: 20.3 ± 4.1 µM
- IC50 [3, 9]: 23.3 ± 5.9 µM
- IC50 [4, 9]: 7.9 ± 0.7 µM
- IC50 [5, 8]: 44.9 ± 31.1 µM
- IC50 [6, 8]: 15.1 ± 2.1 µM
SMILES: CO[C@@H]1[C@@H](O)[C@@H](O)[C@H](Oc2ccc3cc(NC(=O)c4ccccn4)c(=O)oc3c2C)OC1(C)C [compound 40, N-(7-((2R,3R,4S,5R)-3,4-Dihydroxy-5-methoxy-6,6-dimethyltetrahydro-2H-pyran-2-yloxy)-8-methyl-2-oxo-2H-chromen-3-yl)picolinamide]

- IC50 ([1]; Table 4, biaryl analogues): 20.4 ± 3.5 µM
- IC50 ([2]; Table 4, biaryl analogues): 20.4 ± 0.8 µM
- IC50 [3, 7]: 26.4 ± 0.6 µM
- IC50 [4, 7]: 4.2 ± 1 µM
- IC50 ([5]; Table 4, biaryl analogues): 4.2 ± 1.2 µM
- IC50 ([6]; Table 4, biaryl analogues): 50.7 ± 4.3 µM
SMILES: COc1ccc(C(=O)Nc2cc3ccc(O[C@@H]4OC(C)(C)[C@H](OC)[C@@H](O)[C@H]4O)c(C)c3oc2=O)cc1-c1cccc(C)c1 [compound 30, N-(7-((2R,3R,4S,5R)-3,4-Dihydroxy-5-methoxy-6,6-dimethyltetrahydro-2H-pyran-2-yloxy)-8-methyl-2-oxo-2H-chromen-3-yl)-6-methoxy-3′-methylbiphenyl-3-carboxamide]

- IC50 ([1]; Table 3): 10.2 ± 2.3 µM
- IC50 ([2]; Table 3): 6.9 ± 0.3 µM
- IC50 ([3]; Table 3, n = 3): 5.4 ± 0.6 µM
- IC50 ([4]; Table 3, n = 3): 9.8 ± 0.2 µM
- IC50 ([5]; Table 3): 92.8 ± 0.9 µM
- IC50 ([6]; Table 3): 22 ± 5.8 µM
SMILES: CO[C@@H]1[C@@H](O)[C@@H](O)[C@H](Oc2ccc3cc(NC(=O)CCc4ccccc4)c(=O)oc3c2C)OC1(C)C [compound 23, N-(7-((2R,3R,4S,5R)-3,4-Dihydroxy-5-methoxy-6,6-dimethyltetrahydro-2H-pyran-2-yloxy)-8-methyl-2-oxo-2H-chromen-3-yl)-3-phenylpropanamide]

- IC50 ([1]; Table 4, biaryl analogues): 32.4 ± 5.1 µM
- IC50 ([2]; Table 4, biaryl analogues): 18.9 ± 2.7 µM
- IC50 [3, 7]: 37.5 ± 3.4 µM
- IC50 [4, 7]: 6.8 ± 1.5 µM
- IC50 ([5]; Table 4, biaryl analogues): 22.6 ± 3.3 µM
- IC50 ([6]; Table 4, biaryl analogues): 64.7 ± 17.1 µM
SMILES: COc1ccc(C(=O)Nc2cc3ccc(O[C@@H]4OC(C)(C)[C@H](OC)[C@@H](O)[C@H]4O)c(C)c3oc2=O)cc1-c1ccccc1C [compound 29, N-(7-((2R,3R,4S,5R)-3,4-Dihydroxy-5-methoxy-6,6-dimethyltetrahydro-2H-pyran-2-yloxy)-8-methyl-2-oxo-2H-chromen-3-yl)-6-methoxy-2′-methylbiphenyl-3-carboxamide]

- IC50 ([1]; Table 4, biaryl analogues): 25.4 ± 1.7 µM
- IC50 ([2]; Table 4, biaryl analogues): 16.7 ± 6.3 µM
- IC50 [3, 7]: 2.4 ± 1 µM
- IC50 [4, 7]: 1.4 ± 0.1 µM
- IC50 ([5]; Table 4, biaryl analogues): 3.7 ± 0.9 µM
- IC50 ([6]; Table 4, biaryl analogues): 31.9 ± 10.3 µM
SMILES: COc1ccc(C(=O)Nc2cc3ccc(O[C@@H]4OC(C)(C)[C@H](OC)[C@@H](O)[C@H]4O)c(C)c3oc2=O)cc1-c1ccc(C)cc1 [compound 31, N-(7-((2R,3R,4S,5R)-3,4-Dihydroxy-5-methoxy-6,6-dimethyltetrahydro-2H-pyran-2-yloxy)-8-methyl-2-oxo-2H-chromen-3-yl)-6-methoxy-4′-methylbiphenyl-3-carboxamide]

- IC50 [1, 8]: > 100 µM
- IC50 [2, 8]: > 100 µM
- IC50 [3, 9]: > 100 µM
- IC50 [4, 9]: 5.2 ± 1.1 µM
- IC50 [5, 8]: 9.3 ± 0.6 µM
- IC50 [6, 8]: 10.9 ± 2.3 µM
SMILES: CO[C@@H]1[C@@H](O)[C@@H](O)[C@H](Oc2ccc3cc(NC(=O)c4ccc5c(c4)OCO5)c(=O)oc3c2C)OC1(C)C [compound 45, N-(7-((2R,3R,4S,5R)-3,4-Dihydroxy-5-methoxy-6,6-dimethyltetrahydro-2H-pyran-2-yloxy)-8-methyl-2-oxo-2H-chromen-3-yl)benzo[d][1,3]dioxole-5-carboxamide]

The remaining lines, values behind:

SMILES: CO[C@@H]1[C@@H](O)[C@@H](O)[C@H](Oc2ccc3cc(NS(=O)(=O)c4ccccc4)c(=O)oc3c2C)OC1(C)C [compound 21, N-(7-((2R,3R,4S,5R)-3,4-Dihydroxy-5-methoxy-6,6-dimethyltetrahydro-2H-pyran-2-yloxy)-8-methyl-2-oxo-2H-chromen-3-yl)benzenesulfonamide]
- IC50 ([1]; Table 3): > 100 µM
- IC50 ([2]; Table 3): > 100 µM
- IC50 ([3]; Table 3, n = 3): > 100 µM
- IC50 ([4]; Table 3, n = 3): > 100 µM
- IC50 ([5]; Table 3): > 100 µM
- IC50 ([6]; Table 3): > 100 µM

SMILES: CO[C@@H]1[C@@H](O)[C@@H](O)[C@H](Oc2ccc3cc(NC(=O)c4ccccc4N)c(=O)oc3c2C)OC1(C)C [compound 18, 2-Amino-N-(7-((2R,3R,4S,5R)-3,4-dihydroxy-5-methoxy-6,6-dimethyltetrahydro-2H-pyran-2-yloxy)-8-methyl-2-oxo-2H-chromen-3-yl)benzamide]
- IC50 ([1]; Table 2): 17.7 ± 1.4 µM
- IC50 ([2]; Table 2): 17.2 ± 3.3 µM
- IC50 ([3]; Table 2, n = 3): 14.4 ± 0.8 µM
- IC50 ([4]; Table 2, n = 3): 6.2 ± 1.3 µM
- IC50 ([5]; Table 2): 12.7 ± 0.8 µM
- IC50 ([6]; Table 2): 57.9 ± 10.1 µM

SMILES: CO[C@@H]1[C@@H](O)[C@@H](O)[C@H](Oc2ccc3cc(NC(=O)c4ccc(N)cc4)c(=O)oc3c2C)OC1(C)C [compound 20, 4-Amino-N-(7-((2R,3R,4S,5R)-3,4-dihydroxy-5-methoxy-6,6-dimethyltetrahydro-2H-pyran-2-yloxy)-8-methyl-2-oxo-2H-chromen-3-yl)benzamide]
- IC50 ([1]; Table 2): 33.1 ± 1.1 µM
- IC50 ([2]; Table 2): 14 ± 0.5 µM
- IC50 ([3]; Table 2, n = 3): 24.4 ± 5.8 µM
- IC50 ([4]; Table 2, n = 3): 8.4 ± 0.3 µM
- IC50 ([5]; Table 2): 26.4 ± 15.8 µM
- IC50 ([6]; Table 2): 65.2 ± 2.8 µM

SMILES: COc1ccc(C(=O)Nc2cc3ccc(O[C@@H]4OC(C)(C)[C@H](OC)[C@@H](O)[C@H]4O)c(C)c3oc2=O)cc1-c1ccccc1 [compound 28, N-(7-((2R,3R,4S,5R)-3,4-Dihydroxy-5-methoxy-6,6-dimethyltetrahydro-2H-pyran-2-yloxy)-8-methyl-2-oxo-2H-chromen-3-yl)-6-methoxybiphenyl-3-carboxamide]
- IC50 ([1]; Table 4, biaryl analogues): 16.5 ± 4.7 µM
- IC50 ([2]; Table 4, biaryl analogues): 19.5 ± 2.3 µM
- IC50 [3, 7]: 11.4 µM
- IC50 [4, 7]: 2.8 ± 0.4 µM
- IC50 ([5]; Table 4, biaryl analogues): 1.9 ± 0.2 µM
- IC50 ([6]; Table 4, biaryl analogues): 25.4 ± 5.2 µM

SMILES: CO[C@@H]1[C@@H](O)[C@@H](O)[C@H](Oc2ccc3cc(NC(=O)c4ccc([N+](=O)[O-])cc4)c(=O)oc3c2C)OC1(C)C [compound 17, N-(7-((2R,3R,4S,5R)-3,4-Dihydroxy-5-methoxy-6,6-dimethyltetrahydro-2H-pyran-2-yloxy)-8-methyl-2-oxo-2H-chromen-3-yl)-4-nitrobenzamide]
- IC50 ([1]; Table 2): > 100 µM
- IC50 ([2]; Table 2): > 100 µM
- IC50 ([3]; Table 2, n = 3): > 100 µM
- IC50 ([4]; Table 2, n = 3): > 100 µM
- IC50 ([5]; Table 2): 69.3 ± 4.1 µM
- IC50 ([6]; Table 2): > 100 µM

SMILES: CO[C@@H]1[C@@H](O)[C@@H](O)[C@H](Oc2ccc3cc(NC(=O)c4ccccc4-c4ccccc4)c(=O)oc3c2C)OC1(C)C [compound 12, N-(7-((2R,3R,4S,5R)-3,4-Dihydroxy-5-methoxy-6,6-dimethyltetrahydro-2H-pyran-2-yloxy)-8-methyl-2-oxo-2H-chromen-3-yl)biphenyl-2-carboxamide]
- IC50 ([1]; Table 2): 39.1 ± 4.1 µM
- IC50 ([2]; Table 2): 18.9 ± 7 µM
- IC50 ([3]; Table 2, n = 3): 32.7 ± 1.6 µM
- IC50 ([4]; Table 2, n = 3): 14.4 ± 2.4 µM
- IC50 ([5]; Table 2): 17.3 ± 5.2 µM
- IC50 ([6]; Table 2): 65.3 ± 5.6 µM

SMILES: CO[C@@H]1[C@@H](O)[C@@H](O)[C@H](Oc2ccc3cc(NC(=O)Cc4ccccc4)c(=O)oc3c2C)OC1(C)C [compound 22, N-(7-((2R,3R,4S,5R)-3,4-Dihydroxy-5-methoxy-6,6-dimethyltetrahydro-2H-pyran-2-yloxy)-8-methyl-2-oxo-2H-chromen-3-yl)-2-phenylacetamide]
- IC50 ([1]; Table 3): 21.4 ± 2.2 µM
- IC50 ([2]; Table 3): 16.4 ± 0.4 µM
- IC50 ([3]; Table 3, n = 3): 13.2 ± 0.6 µM
- IC50 ([4]; Table 3, n = 3): 8.5 ± 1.7 µM
- IC50 ([5]; Table 3): 10.4 ± 0.2 µM
- IC50 ([6]; Table 3): 43.3 ± 13.4 µM
